# Measured values from patent US6569897B1, “Alkenyldiarylmethane non-nucleoside HIV-1 reverse transcriptase inhibitors” (priority 1998, dated 2003).
# Read-outs that look alike come from different tables or passages of the source.
# Columns and labels:
# HIV-1RF in CEM-SS cells [1] = test: microbe, parasite or virus in culture; conditions: Human immunodeficiency virus 1, CEM-SS, read-out: EC50 (μM), 50% inhibitory concentration for cytopathicity
# in vitro = conditions: human, uninfected (mock-infected) CEM-SS cells
# HIV-1RF in CEM-SS cells [2] = tested on: HIV-1RF in CEM-SS cells
# HIV-1 NL4-3 Wildtype = test: microbe, parasite or virus in culture; format: cell-based; conditions: Human immunodeficiency virus 1, NL43, CEM-SS
# HIV-1 ROJO in PBMC = test: microbe, parasite or virus in culture; format: cell-based; conditions: Human immunodeficiency virus 1, PBMC
# HIV-1 Clade C in PBMC = test: microbe, parasite or virus in culture; format: cell-based; conditions: Human immunodeficiency virus 1, PBMC
# HIV-1 NL4-3, RT Y188C = format: cell-based
# HIV-1 RF in CEM-SS = test: microbe, parasite or virus in culture; format: cell-based; conditions: Human immunodeficiency virus 1, CEM-SS
# HIV-1 NL4-3, RT L74V = format: cell-based
# [3] = tested on: 129/Cost isolate, RT K103N; format: cell-based, HIV-1
# HIV-1 NL4-3, RT A98G = format: cell-based
# HIV-1 IIIB Wild Type = test: microbe, parasite or virus in culture; format: cell-based; conditions: Human immunodeficiency virus 1, IIIB
# HIV-1 NL4-3, RT V108I = format: cell-based
# HIV-1 Ba-L in Mono/Mac = test: microbe, parasite or virus in culture; format: cell-based; conditions: Human immunodeficiency virus 1, BAL
# HIV-1 Clade D in PBMC = test: microbe, parasite or virus in culture; format: cell-based; conditions: Human immunodeficiency virus 1, PBMC
# HIV-1 TEKI in PBMC = test: microbe, parasite or virus in culture; format: cell-based; conditions: Human immunodeficiency virus 1, PBMC
# HIV-1 NL4-3, RT K101E = format: cell-based
# HIV-1 NL4-3, RT V106A = format: cell-based
# HIV-1 Clade A in PBMC = test: microbe, parasite or virus in culture; format: cell-based; conditions: Human immunodeficiency virus 1, PBMC
# HIV-1 Clade B in PBMC = test: microbe, parasite or virus in culture; format: cell-based; conditions: Human immunodeficiency virus 1, PBMC
# HIV-1 Clade E in PBMC = test: microbe, parasite or virus in culture; format: cell-based; conditions: Human immunodeficiency virus 1, PBMC
# HIV-1 IIIB in CEM-SS = test: microbe, parasite or virus in culture; format: cell-based; conditions: Human immunodeficiency virus 1, IIIB
# 3TC isolate, RT M184I = format: cell-based
# HIV-I Clade F in PBMC = test: microbe, parasite or virus in culture; format: cell-based; conditions: Human immunodeficiency virus 1, PBMC
# HIV-1RF in CEM-SS cells [4] = conditions: reported previously; cited from earlier work
smiles,measurement,setting,value
"C=C(c1cc(Br)c(OC)c(C(=O)OC)c1)c1cc(Br)c(OC)c(C(=O)OC)c1 [Compound 3, 3′,3″-Dibromo-4′,4″-dimethoxy-5′,5″-bis(methoxycarbonyl)-1,1-diphenylethene]",EC50,HIV-1RF in CEM-SS cells [1],> 6.9 µM
same,CC50,in vitro,316 µM
same,melting point,,144 to 145 °C
"CC=C(c1cc(Br)c(OC)c(C(=O)OC)c1)c1cc(Br)c(OC)c(C(=O)OC)c1 [Compound 4, 3′,3″-Dibromo-4′,4″-dimethoxy-5′,5″-bis(methoxycarbonyl)-1,1-diphenylpropene]",EC50,HIV-1RF in CEM-SS cells [1],> 6.9 µM
same,CC50,in vitro,10 µM
"COC=C(c1cc(Br)c(OC)c(C(=O)OC)c1)c1cc(Br)c(OC)c(C(=O)OC)c1 [Compound 5, 3′,3″-Dibromo-4′,4″-dimethoxy-5′,5″-bis(methoxycarbonyl)-1-methoxy-2,2-diphenylethene]",EC50,HIV-1RF in CEM-SS cells [1],> 6.9 µM
same,CC50,in vitro,22 µM
"COC(=O)c1cc(C(=CCCO)c2cc(Br)c(OC)c(C(=O)OC)c2)cc(Br)c1OC [Compound 7, 3′,3″-Dibromo-4-hydroxy-4′,4″dimethoxy-5′,5″-bis(methoxycarbony)-1,1-diphenyl-1-butene]",EC50,HIV-1RF in CEM-SS cells [1],6 µM
same,CC50,in vitro,> 316 µM
same,"TI, therapeutic index (CC50 divided by EC50)","HIV-1RF in CEM-SS cells [2]; HIV-1RF, CEM-SS cells",>52
"COC(=O)c1cc(C(=CCCN=[N+]=[N-])c2cc(Br)c(OC)c(C(=O)OC)c2)cc(Br)c1OC [Compound 9, 4-Azido-3′,3″-Dibromo-4′,4″dimethoxy-5′,5″-bis(methoxycarbony)-1,1-diphenyl-1-butene]",EC50,HIV-1RF in CEM-SS cells [1],1.1 µM
same,CC50,in vitro,> 316 µM
same,"TI, therapeutic index (CC50 divided by EC50)","HIV-1RF in CEM-SS cells [2]; HIV-1RF, CEM-SS cells",>278
"CCCCCC1OC1(c1cc(Br)c(OC)c(C(=O)OC)c1)c1cc(Br)c(OC)c(C(=O)OC)c1 (centres unmarked) [Compound 12, 3′,3″-Dibromo-4′,4″-dimethoxy-5′,5″-bis(methoxycarbonyl)-1,1,-diphenyl-1-heptene Epoxide]",EC50,HIV-1RF in CEM-SS cells [1],> 6.9 µM
same,CC50,in vitro,> 100 µM
"COC(=O)c1cc(C(=CC(=O)O)c2cc(Cl)c(OC)c(C(=O)OC)c2)cc(Cl)c1OC [Compound 14, 3′,3″-Dichloro-4′,4″-dimethoxy-5′,5″-bis(methoxycarbonyl)-3,3-diphenylpropenoic Acid]",EC50,HIV-1RF in CEM-SS cells [1],> 6.9 µM
same,CC50,in vitro,48 µM
"COC(=O)C=C(c1cc(Cl)c(OC)c(C(=O)OC)c1)c1cc(Cl)c(OC)c(C(=O)OC)c1 [Compound 15, Methyl 3′,3″-Dichloro-4′,4″-dimethoxy-5,5Δ-bis(methoxycarbonyl)-3,3-diphenylpropenoate]",EC50,HIV-1RF in CEM-SS cells [1],> 6.9 µM
same,CC50,in vitro,25 µM
"COC(=O)c1cc(C(=CC(=O)OC(C)(C)C)c2cc(Cl)c(OC)c(C(=O)OC)c2)cc(Cl)c1OC [Compound 16, tert-Butyl 3′,3″-Dichloro-4′,4″-dimethoxy-5,5″-bis(methoxycarbonyl)3,3-diphenylpropenoate]",EC50,HIV-1RF in CEM-SS cells [1],> 6.9 µM
same,CC50,in vitro,> 100 µM
"COC(=O)c1cc(C(=CCCO)c2cc(Cl)c(OC)c(C(=O)OC)c2)cc(Cl)c1OC [Compound 18, 3′,3″-Dichloro-4-hydroxy-4′,4″dimethoxy-5′,5″-bis(methoxycarbony)-1,1-diphenyl-1-butene]",EC50,HIV-1RF in CEM-SS cells [1],8.6 µM
same,CC50,in vitro,16.8 µM
same,"TI, therapeutic index (CC50 divided by EC50)","HIV-1RF in CEM-SS cells [2]; HIV-1RF, CEM-SS cells",2
"COC(=O)c1cc(C(=CCCOS(C)(=O)=O)c2cc(Cl)c(OC)c(C(=O)OC)c2)cc(Cl)c1OC [Compound 19, 3′,3″-Dichloro-4-methanesulfonyloxy-4′,4″dimethoxy-5′,5′-bis(methoxycarbony)-1,1-diphenyl-1-butene]",EC50,HIV-1RF in CEM-SS cells [1],> 6.9 µM
same,CC50,in vitro,6.9 µM
"COC(=O)c1cc(C(=CCCN=[N+]=[N-])c2cc(Cl)c(OC)c(C(=O)OC)c2)cc(Cl)c1OC [Compound 20, 4-Azido-3′,3″-Dichloro-4′,4″dimethoxy-5′,5′-bis(methoxycarbony)-1,1-diphenyl-1-butene]",EC50,HIV-1RF in CEM-SS cells [1],0.27 µM
same,CC50,in vitro,41.8 µM
same,"TI, therapeutic index (CC50 divided by EC50)",HIV-1RF in CEM-SS cells [2],155
same,potency relative to the bromo azide 9,HIV-1RF in CEM-SS cells [2]; inhibition of viral cytopathicity,four times more potent
"COC(=O)c1cc(C(=CCCN)c2cc(Cl)c(OC)c(C(=O)OC)c2)cc(Cl)c1OC [Compound 21, 4-Amino-3′,3″-Dichloro-4′,4″dimethoxy-5′,5″-bis(methoxycarbony)-1,1-diphenyl-1-butene]",EC50,HIV-1RF in CEM-SS cells [1],> 6.9 µM
same,CC50,in vitro,15 µM
same,inhibition of HIV-1 cytopathic effect (in words),HIV-1RF in CEM-SS cells [2]; HIV-1RF in CEM-SS cells,no detectable inhibitory cytopathic effect was detected
same,inhibition of HIV-1 cytopathic effect (in words),HIV-1RF in CEM-SS cells [2]; at 100 μM,inactive
"COC(=O)CCCC=C(c1cc(Cl)c(OC)c(C(=O)OC)c1)c1cc(Cl)c(OC)c(C(=O)OC)c1 [Compound 22, Methyl 3′,3″-Dichloro-4′,4″-dimethoxy-5,5″-bis(methoxycarbonyl)-6,6-diphenylhexenoate]",EC50,HIV-1 NL4-3 Wildtype,1.78 µM
same,EC50,HIV-1 ROJO in PBMC,2.28 µM
same,EC50,HIV-1 Clade C in PBMC,1.04 µM
same,EC50,"HIV-1 NL4-3, RT Y188C",10.8 µM
same,EC50,HIV-1 RF in CEM-SS,0.91 µM
same,EC50,HIV-1RF in CEM-SS cells [1],0.013 µM
same,EC50,"HIV-1 NL4-3, RT L74V",2.23 µM
same,CC50,in vitro,31.6 µM
same,EC50,[3],10.8 µM
same,EC50,"HIV-1 NL4-3, RT A98G",0.84 µM
same,EC50,HIV-1 IIIB Wild Type,0.39 µM
same,EC50,"HIV-1 NL4-3, RT V108I",12 µM
same,EC50,HIV-1 Ba-L in Mono/Mac,0.36 µM
same,EC50,HIV-1 Clade D in PBMC,1.02 µM
same,EC50,HIV-1 TEKI in PBMC,2.2 µM
same,EC50,"HIV-1 NL4-3, RT K101E",3.05 µM
same,EC50,"HIV-1 NL4-3, RT V106A",12.7 µM
same,EC50,HIV-1 Clade A in PBMC,1.09 µM
same,EC50,HIV-1 Clade B in PBMC,0.43 µM
same,EC50,HIV-1 Clade E in PBMC,0.4 µM
same,EC50,HIV-1 IIIB in CEM-SS,0.16 µM
same,EC50,"3TC isolate, RT M184I",1.08 µM
same,EC50,HIV-I Clade F in PBMC,1.7 µM
"COc1c(Cl)cc(C(=CCC(=O)O)c2cc(Cl)c(OC)c(C(=O)O)c2)cc1C(=O)O [Compound 23, 3′,3″-Dichloro-4′,4″-dimethoxy-5′,5″-bis(carboxy)-4,4-diphenyl-3-butenoic Acid]",EC50,HIV-1RF in CEM-SS cells [1],> 6.9 µM
same,CC50,in vitro,> 316 µM
CC1(C)OC(=O)c2cc(C(=CCCO)c3cc(Cl)c4c(c3)C(=O)OC(C)(C)O4)cc(Cl)c2O1 [Compound 30],EC50,HIV-1RF in CEM-SS cells [1],> 6.9 µM
same,CC50,in vitro,18.8 µM
same,inhibition of HIV-1 cytopathic effect (in words),HIV-1RF in CEM-SS cells [2]; HIV-1RF in CEM-SS cells,inactive
"CC1(C)OC(=O)c2cc(C(=CCCBr)c3cc(Cl)c4c(c3)C(=O)OC(C)(C)O4)cc(Cl)c2O1 [Compound 31, 1-Bromo-4,4-bis(8′,8″-dichloro-2′,2′,2″,2″-tetramethyl-4′,4″-dioxo-6′,6″-0(1,3-benzodioxyl)]-3-butene]",EC50,HIV-1RF in CEM-SS cells [1],> 6.9 µM
same,CC50,in vitro,176 µM
same,inhibition of HIV-1 cytopathic effect (in words),HIV-1RF in CEM-SS cells [2]; HIV-1RF in CEM-SS cells,inactive
"CCCCCC=C(c1ccc(OC)c(C(=O)OC)c1)c1ccc(OC)c(C(=O)OC)c1 [Compound 36, 4′,4″-Dimethoxy-3′,3″-bis(methoxycarbonyl)-1,1-diphenyl-1-heptene]",EC50,HIV-1RF in CEM-SS cells [1],> 6.9 µM
same,CC50,in vitro,14 µM
"CCCCCC=C(c1cc(I)c(OC)c(C(=O)OC)c1)c1cc(I)c(OC)c(C(=O)OC)c1 [Compound 40, 3′,3″-Diiodo-4′,4″-Dimethoxy-5′,5″-bis(methoxycarbonyl)-1,1-diphenyl-1-heptene]",EC50,HIV-1RF in CEM-SS cells [1],> 6.9 µM
same,CC50,in vitro,> 316 µM
same,inhibition of HIV-1 cytopathic effect (in words),HIV-1RF in CEM-SS cells [2]; HIV-1RF in CEM-SS cells,inactivity
CCCCCC=C(c1cc(Cl)c(OC)c(C(=O)OC)c1)c1cc(Cl)c(OC)c(C(=O)OC)c1 [Compound 41],potency relative to 1,HIV-1RF in CEM-SS cells [4],approximately half as potent as 1
